Results reported in patent US8173618B2, “Formulations for reducing neuronal degeneration” (University of Massachusetts, priority 2003, dated 2012).
Entries after “also recorded” stand apart in the source; their conditions may differ.

Assays:
[1] = system: differentiated SH-SY-5Y cells; test: ATP levels in Abeta-treated SH-SY-5Y cells; format: cell-based, human
Protocol: FIG. 11 is a bar graph showing the results of experiments examining apoptosis in which differentiated SH-SY-5Y cells cultured in the presence or absence of Abeta, with or without ALCAR for two hours, and assayed for ATP using spectrophotometric methods known in the art.
(§1) The effect of ALCAR on differentiated SH-SY-5Y cells treated with Abeta was examined. Cells were cultured in 20 μM Abeta in the presence and absence of ALCAR. Some cultures were pretreated with 50 μM ALCAR for 30 minutes. In these experiments, the ALCAR-containing medium was replaced with medium containing Abeta and no ALCAR then incubated for two hours before being assayed. Cultures were assayed for ROS, apoptosis, and ATP.

[2] = system: differentiated SH-SY-5Y cells; test: Intracellular ROS by DCFD fluorescence in differentiated SH-SY-5Y cells; format: cell-based, human; conditions: for ROS: single agent, control cells and cells exposed to Abeta; for increase in ROS resulting from folate deprivation: simultaneously with folate deprivation; for increase in ROS: 20 μM Abeta25-35 two hours
Protocol: Cultured cells were used to test individual agents and formulations. In general, SH-SY-5Y human neuroblastoma cells were cultured in DMEM (Cellgro) containing 10% fetal bovine serum in 5% CO2.
For treatments with Abeta, differentiated cultures were transferred to medium without serum and treated for two hours with 20 μM Abeta25-35 (Sigma Chemical Co., St. Louis, Mo.). […] Louis, Mo.). In experiments calling for treatment of cell cultures with N-acetyl cysteine (NAC; NALC), cultures were treated with 10 mM NAC (Sigma Chemical Co., St. Louis, Mo.) after the culture was grown for two hours in serum-free medium.
(§2) Intracellular reactive oxygen species (ROS) were monitored as described in Ekinci et al., 1999 (J. Biol. Chem., 274:30322-30327). Briefly, cells were incubated for 30 minutes with dichloro-fluorescein diacetate (DCFD; acetoxymethyl ester; Molecular Probes, Inc., Eugene, Oreg.), which is used to detect intracellular peroxide levels. Incubation was followed by rinsing of cultures in serum-free medium and immediate capture of images using UV optics. Images were captured under epifluorescent and phase-contrast illumination using a DAGE CCL-72 cooled CCD camera via a Scion LG-3 frame grabber operated by NIH Image (see the Internet at rsb.info.nih.gov/nih-image). Images were then stored as PICT files on a Macintosh Power PC 7100AV for subsequent analysis. At least 100 cells in randomly-selected fields from duplicate cultures derived from multiple experiments were scored for fluorescent intensity using NIH Image analysis software. Representative background areas devoid of cells were similarly analyzed and subtracted from cell values to yield net densitometric values. All fields for each individual assay were illuminated, captured, and processed under identical settings. Corresponding phase-contrast images were obtained. Cell aggregates were excluded from the assays; only individual cells were quantified. Values were exported to Excel for statistical analyses using Student's t test.
For monitoring of intracellular peroxide concentrations as an index of ROS, cultures received 10 μl/ml DFCD (2′7′-dichlorofluorescein diacetate; Kodak) for 20 minutes. Cultures were then visualized under fluorescein UV optics (perikaryon; Ekinci and Shea, 1999, supra).

[3] = system: differentiated SH-SY-5Y cells; test: Externalized phosphatidylserine (meracyanine fluorescence) as index of apoptosis in SH-SY-5Y cells; format: cell-based, human; conditions: co-treatment with 50 μM ALCAR, 20 μM Abeta
Protocol: (§3) Levels of externalized phosphatidylserine (PS) were used as a measure of apoptosis (Rimon et al., 1997, J. Neurosci. Res., 48:563-570). Briefly, cultures were subjected to treatments then rinsed with PBS and incubated with 10 μl/ml merocyanine (Upstate Biotech, Lake Placid, N.Y.), followed by examination under rhodamine optics (Ekinci et al, 1999, J. Biol. Chem., 274:30322-30327).
The question of whether folate deficiency is associated with apoptosis was investigated. […] Overall detachment, a further sign of cell death, was evident by the seventh day in the serum-deprived cultures. The detachment phenomenon precluded longer experiments.
as §1

SH-SY-5Y cells [4] = test: HPLC of homocysteine in SH-SY-5Y cell lysates and medium; format: cell-based, human; conditions: 25 μM DZA during folate deprivation
Protocol: (§4) Glutathione levels were quantified in homogenates of SH-SY-5Y cells. Cultures were rinsed twice with Tris-buffered saline (TBS), scraped from the plate in a small volume of TBS and homogenized on ice. Medium was also utilized for analysis of HCY along with cellular lysates, since HCY is normally exported from cells. Homogenates (100 μl) were reduced by mixing with 50 μl of 100 μM N-acetylcysteine or with 30 μl of 30 μM cystamine (as an internal standard) and 10 μl of tri-carboxyethylphosphine (100 mg/ml in 0.05 M HCl). Samples were vortexed, incubated at room temperature for 30 minutes, then centrifuged at 10,000×g for 10 minutes. 80 μl of the resulting supernatant were combined with 160 μl of 2 M boric acid/4 mM EDTA (pH 10.5), followed by 80 μl of 1.0 mg/ml SBDF [7-fluorobenzo-2-oxa-1,3-diazole-4-sulfonate] in boric acid/EDTA buffer). Samples were mixed, incubated for 60 minutes at 60° C., equilibrated to reach temperature, and 50 μl of the sample was then injected into a Hewlett Packard model 1090 HPLC, which is used with a 1046A fluorescence detector and a Hewlett Packard 4.6×60 mm high-speed analytical column packed with 3 μM ODs (C18) Hypersil silica. The mobile phase consisted of methanol/0.2 M acetate buffer pH 4.0 (2/98 by volume). Glutathione concentrations were then determined by comparison of peak area ratios of glutathione to the internal standard N-acetylcysteine in the sample compared to peak areas obtained for a glutathione standard curve. Samples were derived from 3-4 normal and 3-4 ApoE−/− mice for each dietary condition, from ≧2 independent experiments (total n≧6 for each diet for both experiments).
Medium was then decanted, cells were scraped from the plate and homogenized, and medium and cellular lysates, along with an aliquot of fresh medium that had not been in contact with cells, were subjected to HPLC analyses.

SH-SY-5Y cells [5] = test: Homocysteine-induced apoptosis, meracyanine staining of externalized PS; format: cell-based, human
Protocol: FIG. 20 is a bar graph that depicts the results of experiments in which […] were treated with 250 μM homocysteine with or without 100 μM SAM, after which cultures were monitored for externalized PS via meracyanine staining as an indication of apoptosis. Values represent the mean (±standard error of the mean) in arbitrary densitometric units derived from densitometric analyses of 10-50 neurons from two cultures under each condition from two separate independent experiments.
as §3
Homocysteine induces apoptosis in cultured cells. To investigate the effect of SAM on HC-induced apoptosis, 100 μM SAM and homocysteine were added to cultured SH-SY-5Y cells and apoptosis was monitored by meracyanine staining to detect the externalization of PS.

[6] = reported; cited from earlier work
SH-SY-5Y cells [7] = test: HPLC analysis of glutathione and thiols in SH-SY-5Y cells; format: cell-based, human; conditions: NAC treatment in the absence of folate
Protocol: as §4
NAC directly scavenges ROS and also provide a source of intracellular cysteine for synthesis of glutathione during conditions of oxidative stress. […] Differentiated SH-SY-5Y cells with and without NAC treatment were subjected to HPLC along with 50 μM each of multiple thiol standards (“Standards”) as indicated in FIGS. 18A to 18C.

normal and ApoE−/− mice = test: TBAR analysis of brain oxidative damage in mice on dietary regimens; format: in vivo; conditions: deficiency in vitamin E alone
Description: Damage resulting from the generation of intracellular reactive oxygen species can also be quantified using a TBAR assay (Ohkawa et al., Anal. Biochem., 95:351-358, 1979). This method is used to determine cellular lipid hydroperoxides in cultured cells by thiobarbituric acid reaction. Lipid hydroperoxides break down to malondialdehyde and other aldehydes. These react with thiobarbituric acid in a mildly acidic environment, which results in formation of a chromophore. The resulting chromophore is measured by light absorption or fluorescence techniques.
After one month, total brain tissue was harvested and subjected to TBAR analyses as described in Wittaker et al. (1996, supra).
Additional mice received the deficient diet supplemented with DZA (0.4 g/kg total diet weight), SAM (80 mg/kg diet weight) and NAC (1 g/kg diet weight). Total brain tissue was harvested and analyzed for TBARs.

cortical neurons = test: Intracellular ROS by DCFD fluorescence in cortical neurons; format: cell-based, mice; conditions: folate-deficient medium two hours, 0.15 mg/ml vitamin E as alpha-tocopherol
Protocol: as §2, with “Ekinci” left out, “test. […]” for “test.”

[8] = no folate + 25 μM DZA, two hours

CC(=O)O[C@H](CC(=O)[O-])C[N+](C)(C)C [ALCAR, acetyl-L-carnitine]
Abeta-induced reduction in ATP levels ([1]; co-treatment and prior treatment with 50 μM ALCAR): prevented this reduction in ATP levels
effect of Abeta on ROS generation ([2]; co-treatment with 50 μM ALCAR, 20 μM Abeta): reduced the effect of Abeta on ROS generation
Abeta neurotoxicity (ROS, apoptosis) ([2]; pretreatment with 50 μM ALCAR for 30 minutes, followed by its removal): effective at preventing Abeta neurotoxicity
ROS ([2]; two hours): reduced ROS
effect of Abeta on apoptosis [3]: reduced

Nc1nccc2c1ncn2[C@@H]1O[C@H](CO)[C@@H](O)[C@H]1O [DZA, 3-deazaadenosine]
attenuation of the increase in ROS from folate deprivation ([2]; 25 μM DZA during folate deprivation): approximately 50%
attenuation of the increase in ROS from folate deprivation ([2]; 25 μM DZA simultaneously with folate deprivation): attenuated the increase in ROS by slightly more than half
ROS % increase vs. control [2, 8]: 16%
ROS Mean ± SEM [2, 8]: 8.8 ± 0.3
HCY formation and export (SH-SY-5Y cells [4]): prevented HCY formation and export to a level below that observed in cultures receiving folate

N[C@@H](CCS)C(=O)O [Homocysteine, homocysteine]
externalization of PS (SH-SY-5Y cells [5]; homocysteine, 2 and 24 hours): progressively induced externalization of PS

CC(=O)N[C@@H](CS)C(=O)O [NAC, N-acetyl cysteine]
entry into the CNS [6]: reported to enter or have effects in the CNS
increase in ROS resulting from folate deprivation ([2]; 1 mM NAC, two hours): prevented the increase in ROS
increase in ROS resulting from folate deprivation ([2]; 10 mM NAC, two hours): prevented the increase in ROS
ROS induced by Abeta ([2]; NAC (10 mM) applied 15 minutes after Abeta): quenched ROS
intracellular cysteine (HPLC) (SH-SY-5Y cells [7]): marked increase
intracellular glutathione (HPLC) (SH-SY-5Y cells [7]): marked increase

C[S+](CC[C@H](N)C(=O)O)C[C@H]1O[C@@H](n2cnc3c(N)ncnc32)[C@H](O)[C@@H]1O (stereo partly shown) [SAM, S-adenosyl methionine]
entry into the CNS [6]: reported to enter or have effects in the CNS
homocysteine-induced PS externalization (SH-SY-5Y cells [5]; 100 μM SAM, 2 hours): prevented PS externalization
reduction of homocysteine-induced PS externalization (SH-SY-5Y cells [5]; 100 μM SAM, 24 hours): approximately 50%
increase in ROS generated by folate deprivation ([2]; 100 μM SAM, two hours): attenuation of the increase in ROS; also recorded: reduced ROS levels to a greater extent than did incubation of cells in the presence of folate

Cc1c(C)c2c(c(C)c1O)CC[C@@](C)(CCC[C@H](C)CCC[C@H](C)CCCC(C)C)O2 [vitamin E, alpha-tocopherol]
ROS in brain (TBAR) (normal and ApoE−/− mice; ApoE−/− knockout mice): did increase ROS
ROS in brain (TBAR) (normal and ApoE−/− mice; iron-fed normal mice): did not increase ROS
ROS generation during folate deprivation (cortical neurons): not prevented
ROS induction by Abeta ([2]; additional experiments, vitamin E): prevented
ROS ([2]; two hours): reduced ROS
ROS induced by Abeta ([2]; vitamin E (0.15 ng/mL) applied 15 minutes after Abeta): efficacy of vitamin E was markedly reduced; also recorded: but not vitamin E, quenched ROS
ROS induced by Abeta ([2]; vitamin E (0.15 ng/mL) provided simultaneously with Abeta, two hours): approximately identical to that of control cells

Abeta: beta-amyloid fragment of the amyloid precursor protein; Abeta25-35 (Sigma) used at 20 μM (GSNKGAIIGLM; Amyloid-beta protein 42; UniProt P05067 696-706, looked up, fragment)
cellular ATP ([1]; 20 μM Abeta): reduced cellular ATP
increase in ROS ([2]; folate-deprived cells): 144±10%
increase in ROS ([2]; in the presence of folate): 34±4%
